# Data reported in patent US20210386757A1, “Methods of Treating Menopausal Symptoms Using Low Dose Progesterone” (priority 2018, published 2021).
# How the values were obtained:
# [1] = test system: symptoms of the menopause transition state; assay: Trial of progesterone for treating symptoms of the menopause transition state (Example 1); type: in vivo, women; details: greater than 100 patients, low dose e.g. 25 mg twice a day
# Protocol: It is apparent based on initial observations that supplementing with a low dose progesterone alleviates symptoms in women transitioning into menopause. The question then becomes, if a person is experiencing symptoms of estrogen dominance does failing to treat estrogen dominance result in a greater risk of breast cancer, uterine cancer, and cardiovascular disease. Supplementing with progesterone, e.g., at 25 mg twice a day can improve many symptoms associated with menopause transition. […] Micronized progesterone (25 mg) Dosing regimens of interest: One tablet bid (twice a day); Two tablets qhs (each night at bedtime); One tablet qam (every morning), two tablets qhs (each night at bedtime).
# [2] = test system: symptoms associated with menopause transition; assay: Observational study of low dose oral micronized progesterone in menopause transition, Menopause Rating Scale (MRS); type: in vivo, women
# Source text: Women between the ages of 40 to 55 years of age who were experiencing symptoms consistent with menopause transition were offered a trial of a low dose progesterone to alleviate their symptoms. The primary complaint for inclusion in the study was alterations in mood defined as depressive mood, irritability, or anxiety on the Menopause Rating Scale (MRS). A score of 2-4 on these mood changes was required to be included in the study. One additional symptom (sleep problems, hot flushes, physical and mental exhaustion) on the MRS was required, with a minimum score of 1, to be included. Patients with a history of breast cancer, actively trying to conceive, or in menopause were excluded from the study. Menopause was defined as no menses for greater than one year or surgical removal of the ovaries. Patients were consented for a trial of oral micronized progesterone at 25 mg twice a day. Response to treatment was evaluated in the office after 3 months of treatment. Data was collected over a one-year time period, September 2018-September 2019. The menopause transition time, referred to as perimenopause, includes both the early and late perimenopausal group. Patient selection was classified according to STRAW (Stages of Reproductive Aging Workshop) classification. Late perimenopause was defined as menstruation in the previous/last 2-12 months, but not in the previous/last 2 months. Early perimenopause was defined as increasing irregularity of menses without skipping periods (7 days difference) from the beginning of a given cycle to the next. The Menopause Rating Scale was utilized to quantify qualitative symptoms associated with the menopause transition. Given treatment differences in the symptoms that impact person transitioning through menopause, attention was focused on 6 components of the MRS; hot flushes, sleep problems, depressive mood, irritability, anxiety, and physical/mental exhaustion. The scoring scheme increases point by point with increasing severity of subjectively perceived symptoms in each of those 6 items (severity 0 [no complaints] . . . 4 scoring points [very severe symptoms]). The respondent rated their personal symptoms on a 0 to 4 scale for each item. The MRS was chosen as a result of being a reliable measure of quality of life in aging women of various regions over time.
structure (smiles),measurement,setting,value
"CC(=O)[C@H]1CC[C@H]2[C@@H]3CCC4=CC(=O)CC[C@]4(C)[C@H]3CC[C@]12C [micronized progesterone, progesterone]","subsequent diagnosis of breast cancer, uterine cancer, or a cardiovascular event",[1],"not one patient was subsequently diagnosed with breast cancer, uterine cancer, or a cardiovascular event"
same,response of patients who altered the dosing regimen,"[2]; once a day or two tablets (50 mg) at night, 14 patients excluded from the study",noted benefits and chose to continue the medication
same,"patients with at least a one-point improvement in MRS symptom score, physical and mental exhaustion","[2]; oral 25 mg twice a day, 3 months, 12 of 19 patients who noted physical and mental exhaustion",63%
same,"patients with at least a one-point improvement in MRS symptom score, sleep problems","[2]; oral 25 mg twice a day, 3 months, 27 of 32 patients who noted sleep problems",84%
same,"patients with at least a one-point improvement in MRS symptom score, hot flushes","[2]; oral 25 mg twice a day, 3 months, 44 of 48 patients who noted hot flushes",92%
same,patients who did not report side effects to the medication,"[2]; oral 25 mg twice a day, 3 months, of 55 patients evaluated",54 patients
same,patients reporting MRS symptom score of 0,"[2]; oral 25 mg twice a day, at 3 months, 44 of 55 patients",80%
same,"discontinuation because of a diagnosis of breast cancer, thromboembolic event, or abnormal uterine bleeding","[2]; oral 25 mg twice a day, during the study period",No patient discontinued the medication
same,patients with at least a two-point improvement in MRS symptom score related to mood changes,"[2]; oral 25 mg twice a day, evaluated at 3 months, 52 of 55 patients",94.5%
same,discontinuation because of an adverse effect,"[2]; oral 25 mg twice a day, prior to the 3 month follow up",One patient discontinued the medication prior to the 3 month follow up secondary to worsening headaches
